Data as given in article PMC11901902, “Design, Synthesis, and Cytotoxicity Evaluation of Novel Indolin-2-One Based Molecules on Hepatocellular Carcinoma HepG2 Cells as Protein Kinase Inhibitors” (Molecules, 2025).

Key:
HepG-2 cells = test: MTT cytotoxicity assay on HepG-2 cells; assay type: cell-based, human; details: Homo sapiens, HepG2; for viability at 1.25 µM: HepG-2, 1.25 µM; for viability at 1.25 µM / viability at 2.5 µM / viability at 5 µM / viability at 10 µM / viability at 20 µM / viability at 40 µM / viability at 80 µM / viability at 160 µM: Table S1; for viability at 2.5 µM: HepG-2, 2.5 µM; for viability at 5 µM: HepG-2, 5 µM; for viability at 10 µM: HepG-2, 10 µM; for viability at 20 µM: HepG-2, 20 µM; for viability at 40 µM: HepG-2, 40 µM; for viability at 80 µM: HepG-2, 80 µM; for viability at 160 µM: HepG-2, 160 µM; for IC50: MTT, 24 h treatment, mean of three experiments ± SEM
Description: (§1) Cytotoxic activity of the synthesized compounds was evaluated against HepG-2 and MCF-7 cancer cell lines using the MTT assay. The tested cell lines were obtained from the American Type Culture Collection (ATCC, […], USA) through the Tissue Culture Unit, The Egyptian Organization for Biological Products and Vaccines (Vacsera, Giza, Egypt). Indirubin, chemicals, and solvents were purchased from Sigma-Aldrich (St. Louis, MO, USA). The cells were grown on RPMI-1640 medium supplemented with 10% inactivated fetal calf serum and 50 µg/mL gentamycin. The cells were maintained at 37 °C in a humidified atmosphere with 5% CO2 and were sub-cultured two to three times per week. For antitumor assays, the tumor cell lines were suspended in the medium at concentration 5 × 10^4 cell/well in Corning® 96-well tissue culture plates (Corning, Corning, NY, USA), then incubated for 24 h. The tested molecules were then added to 96-well plates (six replicates) to achieve six concentrations for each compound. Six vehicle controls with media or 0.5% DMSO were run for each 96-well plate as a control. After incubating for 24 h, the numbers of viable cells were determined by the MTT test. Briefly, the media was removed from the 96 well plate and replaced with 100 µL of fresh culture RPMI 1640 medium without phenol red then 10 µL of the 12 mM MTT stock solution (5 mg of MTT in 1 mL of PBS) to each well including the untreated controls. The 96-well plates were then incubated at 37 °C and 5% CO2 for 4 h. An 85 µL aliquot of the media was removed from the wells, and 50 µL of DMSO was added to each well, mixed thoroughly with the pipette, and incubated at 37 °C for 10 min. Then, the optical density was measured at 590 nm with the microplate reader (SunRise, TECAN, Inc., Morrisville, NC, USA) to determine the number of viable cells, and the percentage of viability was calculated as […], where ODt is the mean optical density of wells treated with the tested sample and ODc is the mean optical density of untreated cells. The relation between surviving cells and drug concentration was plotted to obtain the survival curve of each tumor cell line after treatment with the specified compound. […] Each concentration was repeated four times.

MCF-7 cells = test: MTT cytotoxicity assay on MCF-7 cells; assay type: cell-based; details: Homo sapiens, MCF7; for viability at 1.25 µM: MCF-7, 1.25 µM; for viability at 1.25 µM / viability at 2.5 µM / viability at 5 µM / viability at 10 µM / viability at 20 µM / viability at 40 µM / viability at 80 µM / viability at 160 µM: Table S2; for viability at 2.5 µM: MCF-7, 2.5 µM; for viability at 5 µM: MCF-7, 5 µM; for viability at 10 µM: MCF-7, 10 µM; for viability at 20 µM: MCF-7, 20 µM; for viability at 40 µM: MCF-7, 40 µM; for viability at 80 µM: MCF-7, 80 µM; for viability at 160 µM: MCF-7, 160 µM; for IC50: MTT, 24 h treatment, mean of three experiments ± SEM, read-out: IC50 (µM) MCF-7
Description: as §1

VEGFR-2 = target: T1, VEGFR-2 (Homo sapiens, UniProt P35968); test: Kinase-Glo Plus luminescence kinase inhibition assay, VEGFR-2; assay type: biochemical; details: 10 µM ATP, 30 °C, 40 min; mean ± SEM
T1 construct: purchased BPS Bioscience 40301
T1 sequence (P35968 20-1356): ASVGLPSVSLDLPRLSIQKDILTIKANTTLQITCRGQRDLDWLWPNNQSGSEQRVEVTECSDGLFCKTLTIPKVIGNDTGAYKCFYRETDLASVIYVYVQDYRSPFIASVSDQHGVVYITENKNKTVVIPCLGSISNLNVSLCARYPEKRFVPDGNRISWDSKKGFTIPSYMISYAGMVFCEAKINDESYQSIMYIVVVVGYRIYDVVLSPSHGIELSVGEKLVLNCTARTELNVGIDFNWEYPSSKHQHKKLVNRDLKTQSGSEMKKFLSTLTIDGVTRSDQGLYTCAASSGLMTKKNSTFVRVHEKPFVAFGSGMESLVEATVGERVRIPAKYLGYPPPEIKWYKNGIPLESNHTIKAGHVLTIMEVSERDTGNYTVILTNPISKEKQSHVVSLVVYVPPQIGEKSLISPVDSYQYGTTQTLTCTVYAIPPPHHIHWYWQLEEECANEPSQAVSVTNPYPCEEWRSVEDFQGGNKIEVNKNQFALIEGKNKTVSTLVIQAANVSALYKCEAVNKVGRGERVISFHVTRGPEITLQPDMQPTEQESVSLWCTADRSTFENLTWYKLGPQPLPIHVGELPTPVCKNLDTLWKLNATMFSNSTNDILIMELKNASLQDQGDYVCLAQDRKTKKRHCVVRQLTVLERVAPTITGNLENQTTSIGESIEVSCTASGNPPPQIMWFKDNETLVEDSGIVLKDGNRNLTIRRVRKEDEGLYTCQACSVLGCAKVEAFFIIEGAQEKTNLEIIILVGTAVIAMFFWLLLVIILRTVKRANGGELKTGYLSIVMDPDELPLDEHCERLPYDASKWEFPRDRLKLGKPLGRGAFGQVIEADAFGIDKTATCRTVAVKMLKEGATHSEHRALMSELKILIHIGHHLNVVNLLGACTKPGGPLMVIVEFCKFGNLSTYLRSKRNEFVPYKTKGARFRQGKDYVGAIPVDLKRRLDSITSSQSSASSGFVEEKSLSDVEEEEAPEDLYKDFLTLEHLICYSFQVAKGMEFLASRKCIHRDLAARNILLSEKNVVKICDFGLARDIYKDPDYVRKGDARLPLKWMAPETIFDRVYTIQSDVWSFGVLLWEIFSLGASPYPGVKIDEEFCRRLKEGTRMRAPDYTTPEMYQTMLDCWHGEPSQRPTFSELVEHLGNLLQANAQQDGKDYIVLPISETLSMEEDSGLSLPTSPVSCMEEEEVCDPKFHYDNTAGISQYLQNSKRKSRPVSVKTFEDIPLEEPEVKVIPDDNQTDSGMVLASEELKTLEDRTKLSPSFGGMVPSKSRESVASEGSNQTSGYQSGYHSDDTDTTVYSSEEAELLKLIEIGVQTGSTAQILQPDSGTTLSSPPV
Description: (§2) The enzyme inhibition assay for the tested molecules was performed at BPS Bioscience Corporation, San Diego, CA, USA. The following materials served as the enzyme sources, Poly (Glu, Tyr) sodium salt (4:1, Glu:Tyr) (Sigma#P7244) served as the standardized substrate, and the Kinase-Glo Plus Luminescence kinase assay kit (Promega # V3772) was used. […] Glo Plus luminescence kinase assay kits. The assays were performed using Kinase-Glo Plus luminescence (Promega Corporation, Madison, WI, USA).
(§3) The tested molecules 9, 20, and indurbin were diluted to 100 µL in DMSO (10%), and 5 µL of the solution was added to a 50-µL enzyme reaction until the final concentration of DMSO was 1% in all of reactions. The enzymatic reactions were conducted at 30 °C for 40 min. The reaction mixture contained enzyme substrate and respective kinases. After the enzymatic reaction, 50 µL of enzyme-Glo Plus luminescence […] assay solution (Promega) was added to each reaction, and the plate was incubated for 5 min at room temperature. The luminescence signal was measured using a BioTek Synergy 2 microplate reader. The luminescence data were analyzed using the computer software GraphPad Prism. The difference between luminescence intensities in the absence of enzyme (Lut) and in the presence of enzyme (Luc) was defined as 100% activity (Lut − Luc). […] The IC50 value was determined using GraphPad Prism software. […]
(§4) Glo Plus luminescence kinase assay kits were used in these assays. […] The assay measures kinase activity by quantitating the amount of ATP remaining in the solution following kinase reaction. […] After the enzymatic reaction, 50 µL of Kinase-Glo Plus Luminescence kinase assay solution (Promega) was added to each reaction, and the plate was incubated for 5 min at room temperature. The luminescence signal was measured using a BioTek Synergy 2 microplate reader. […] The luminescence data were analyzed using the Graphpad Prism software.

EGFR = target: T2, EGFR (Homo sapiens, UniProt P00533); test: Kinase-Glo Plus luminescence kinase inhibition assay, EGFR; assay type: biochemical; details: 10 µM ATP, 30 °C, 40 min; mean ± SEM
T2 construct: purchased BPS Bioscience 40721
T2 sequence (P00533 25-1210): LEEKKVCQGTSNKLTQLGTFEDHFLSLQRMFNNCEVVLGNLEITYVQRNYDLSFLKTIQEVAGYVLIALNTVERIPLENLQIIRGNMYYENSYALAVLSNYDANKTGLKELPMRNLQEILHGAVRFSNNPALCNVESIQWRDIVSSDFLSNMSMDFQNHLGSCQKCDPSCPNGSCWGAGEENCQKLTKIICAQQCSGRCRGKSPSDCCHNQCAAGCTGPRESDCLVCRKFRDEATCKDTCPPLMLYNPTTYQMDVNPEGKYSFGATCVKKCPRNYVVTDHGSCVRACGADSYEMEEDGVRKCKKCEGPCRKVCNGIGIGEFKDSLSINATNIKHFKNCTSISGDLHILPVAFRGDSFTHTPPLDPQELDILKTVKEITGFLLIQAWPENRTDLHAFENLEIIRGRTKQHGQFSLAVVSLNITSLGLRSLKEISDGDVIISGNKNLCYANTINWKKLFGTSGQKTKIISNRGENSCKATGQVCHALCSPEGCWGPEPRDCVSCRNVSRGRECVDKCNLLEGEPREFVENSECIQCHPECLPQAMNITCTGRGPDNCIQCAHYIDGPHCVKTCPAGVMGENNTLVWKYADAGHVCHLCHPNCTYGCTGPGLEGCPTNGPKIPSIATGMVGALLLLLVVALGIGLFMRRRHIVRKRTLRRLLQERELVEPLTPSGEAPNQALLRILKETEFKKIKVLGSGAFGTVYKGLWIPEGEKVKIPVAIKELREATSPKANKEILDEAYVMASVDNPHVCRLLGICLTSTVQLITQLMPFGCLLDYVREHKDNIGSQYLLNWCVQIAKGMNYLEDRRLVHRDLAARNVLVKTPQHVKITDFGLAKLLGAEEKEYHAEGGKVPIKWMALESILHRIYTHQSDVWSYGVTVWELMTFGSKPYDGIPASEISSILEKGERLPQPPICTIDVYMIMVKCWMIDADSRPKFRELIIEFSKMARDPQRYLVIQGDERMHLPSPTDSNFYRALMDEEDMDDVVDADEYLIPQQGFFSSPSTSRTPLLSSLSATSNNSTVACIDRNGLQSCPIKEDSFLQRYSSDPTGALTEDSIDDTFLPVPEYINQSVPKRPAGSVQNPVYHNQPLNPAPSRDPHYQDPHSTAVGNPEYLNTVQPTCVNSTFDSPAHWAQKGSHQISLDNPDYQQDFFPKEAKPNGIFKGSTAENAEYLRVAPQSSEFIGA
Description: as §2, §3, §4

CDK-2 = target: T3, CDK-2 (Homo sapiens, UniProt P24941); test: Kinase-Glo Plus luminescence kinase inhibition assay, CDK-2; assay type: biochemical; details: 10 µM ATP, 30 °C, 40 min; mean ± SEM
T3 construct: purchased BPS Bioscience 41101
Description: as §2
The tested molecules 9, 20, and indurbin were diluted to 100 µL in DMSO (10%), and 5 µL of the solution was added to a 50-µL enzyme reaction until the final concentration of DMSO was 1% in all of reactions. The enzymatic reactions were conducted at 30 °C for 40 min. The reaction mixture contained enzyme substrate and respective kinases. After the enzymatic reaction, 50 µL of enzyme-Glo Plus luminescence […] assay solution (Promega) was added to each reaction, and the plate was incubated for 5 min at room temperature. The luminescence signal was measured using a BioTek Synergy 2 microplate reader. The luminescence data were analyzed using the computer software GraphPad Prism. The difference between luminescence intensities in the absence of enzyme (Lut) and in the presence of enzyme (Luc) was defined as 100% activity (Lut − Luc). The values of enzyme activity percentages versus five concentrations of the small molecule were then plotted using a non-linear regression analysis of the sigmoidal dose–response curve. The IC50 value was determined using GraphPad Prism software. All experiments were repeated three times (Table S3).
Glo Plus luminescence kinase assay kits were used in these assays. The assay was done at Bioscience Laboratory BPS, California, USA. The assay measures kinase activity by quantitating the amount of ATP remaining in the solution following kinase reaction. The luminescent signal from the assay was correlated with the amount of ATP present and inversely correlated with kinase activity. […] All of the enzymatic reactions were conducted at 30 °C for 40 min. The reaction mixture contained 40 mM Tris, pH 7.4, 10 mM MgCl2, 0.1 mg/mL BSA, 1 mM DTT, 10 µM ATP, Kinase substrate, and VEGFR-2, EFGR, CDK-2 and CDK-4 enzymes. After the enzymatic reaction, 50 µL of Kinase-Glo Plus Luminescence kinase assay solution (Promega) was added to each reaction, and the plate was incubated for 5 min at room temperature. The luminescence signal was measured using a BioTek Synergy 2 microplate reader. Kinase activity assays were performed in triplicate for each concentration. The luminescence data were analyzed using the Graphpad Prism software.

CDK-4 = target: T4, CDK-4 (Homo sapiens, UniProt P11802); test: Kinase-Glo Plus luminescence kinase inhibition assay, CDK-4; assay type: biochemical; details: 10 µM ATP, 30 °C, 40 min; mean ± SEM
T4 construct: purchased BPS Bioscience 79674
T4 sequence (P11802 whole entry): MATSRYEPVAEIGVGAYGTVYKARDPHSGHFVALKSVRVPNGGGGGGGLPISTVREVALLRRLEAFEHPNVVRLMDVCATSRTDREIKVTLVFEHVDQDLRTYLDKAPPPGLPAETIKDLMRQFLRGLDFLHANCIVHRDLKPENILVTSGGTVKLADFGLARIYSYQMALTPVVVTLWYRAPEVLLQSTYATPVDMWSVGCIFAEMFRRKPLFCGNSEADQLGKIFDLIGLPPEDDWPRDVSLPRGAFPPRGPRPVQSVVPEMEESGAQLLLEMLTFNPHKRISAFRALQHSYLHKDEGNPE
T4 sequence (P30281 whole entry partner): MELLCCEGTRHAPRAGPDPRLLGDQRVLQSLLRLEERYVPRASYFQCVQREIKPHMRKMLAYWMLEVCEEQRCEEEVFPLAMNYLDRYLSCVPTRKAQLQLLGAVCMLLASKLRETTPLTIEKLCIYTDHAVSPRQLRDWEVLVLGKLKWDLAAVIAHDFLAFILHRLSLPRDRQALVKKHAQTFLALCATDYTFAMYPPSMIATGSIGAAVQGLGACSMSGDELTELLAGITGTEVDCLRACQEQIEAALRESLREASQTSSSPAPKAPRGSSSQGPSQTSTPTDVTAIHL
Description: as §2, §3, §4

HepG2 cells = test system: HepG2 cells; parameters: method as in PMID 34208562; details: relative to sunitinib; cited from earlier work

SMILES | viability at 1.25 µM (HepG-2 cells) | viability at 2.5 µM (HepG-2 cells) | viability at 5 µM (HepG-2 cells) | viability at 10 µM (HepG-2 cells) | viability at 20 µM (HepG-2 cells) | viability at 40 µM (HepG-2 cells) | viability at 80 µM (HepG-2 cells) | viability at 160 µM (HepG-2 cells) | IC50 (HepG-2 cells) | viability at 1.25 µM (MCF-7 cells) | viability at 2.5 µM (MCF-7 cells) | viability at 5 µM (MCF-7 cells) | viability at 10 µM (MCF-7 cells) | viability at 20 µM (MCF-7 cells) | viability at 40 µM (MCF-7 cells) | viability at 80 µM (MCF-7 cells) | viability at 160 µM (MCF-7 cells) | IC50 (MCF-7 cells) | also measured
O=C1Nc2ccc(F)cc2/C1=N/c1ccc(-c2nc3ccccc3c(=O)[nH]2)cc1 [Compound 19, 2-[4-(5-Flouro-2-oxo-1,2-dihydro-indol-3-ylideneamino)-phenyl]-3H-quinazolin-4-one] | 68.4 ± 6.6% | 75 ± 5.3% | 72.3 ± 5.9% | 58.4 ± 3.5% | 46.3 ± 2.4% | 26.6 ± 1.7% | 13.6 ± 0.8% | 7.47 ± 0.2% | 28.4 ± 1.26 µM | 109 ± 6.6% | 99.3 ± 5.3% | 93.9 ± 4.9% | 81.2 ± 3.9% | 59 ± 2.4% | 36.4 ± 1.7% | 16.4 ± 1.8% | 12 ± 1.2% | 40.8 ± 3.24 µM | –
O=C1Nc2ccc(Br)cc2C1=Nc1ccc(-c2nc3ccccc3c(=O)[nH]2)cc1 [Compound 21, 2-[4-(5-Bromo-2-oxo-1,2-dihydro-indol-3-ylideneamino)-phenyl]-3H-quinazolin-4-one] | 98.3 ± 7.7% | 82.5 ± 6.8% | 77.8 ± 5.5% | 61.4 ± 4.6% | 47 ± 3.4% | 23 ± 1.5% | 9.33 ± 1.1% | 6.14 ± 0.9% | 23.7 ± 0.74 µM | 103 ± 7.7% | 99.6 ± 6.8% | 91.6 ± 5.5% | 78.2 ± 4.6% | 66.3 ± 3.4% | 33.2 ± 2.5% | 16 ± 1.1% | 10.3 ± 0.9% | 33.6 ± 2.33 µM | –
O=C1Nc2ccc([N+](=O)[O-])cc2C1=Nc1ccc(-c2nc3ccccc3c(=O)[nH]2)cc1 [Compound 22, 2-[4-(5-Nitro-2-oxo-1,2-dihydro-indol-3-ylideneamino)-phenyl]-3H-quinazolin-4-one] | 79.2 ± 7.2% | 73.3 ± 6.5% | 63 ± 5.9% | 48.5 ± 4.1% | 38 ± 3.8% | 26.1 ± 2.3% | 8.22 ± 0.5% | 4.17 ± 0.2% | 35.8 ± 2 µM | 109 ± 8% | 99.6 ± 7.4% | 95.3 ± 5.9% | 79.1 ± 5.1% | 63.6 ± 3.8% | 49.9 ± 3.3% | 23.5 ± 2.5% | 12.9 ± 1.3% | 14.9 ± 0.66 µM | –
Cc1ccc2c(c1)C(=Nc1ccc(-c3nc4ccccc4c(=O)[nH]3)cc1)C(=O)N2 [Compound 23, 2-[4-(5-Methyl-2-oxo-1,2-dihydro-indol-3-ylideneamino)-phenyl]-3H-quinazolin-4-one] | 81.5 ± 7.5% | 75.3 ± 6.8% | 64.8 ± 6% | 50.2 ± 4.4% | 39.1 ± 3.6% | 28.7 ± 2.6% | 9.5 ± 0.6% | 4.5 ± 0.3% | 38.4 ± 2.71 µM | 101 ± 7.9% | 91.5 ± 6.5% | 78.8 ± 6.4% | 65.8 ± 5.6% | 40.9 ± 4.6% | 26.9 ± 3% | 12 ± 1.3% | 12 ± 1.6% | 15.3 ± 0.23 µM | –
COc1ccc2c(c1)C(=Nc1ccc(-c3nc4ccccc4c(=O)[nH]3)cc1)C(=O)N2 [Compound 24, 2-[4-(5-Methoxy-2-oxo-1,2-dihydro-indol-3-ylideneamino)-phenyl]-3H-quinazolin-4-one] | 99.4 ± 8.2% | 95.5 ± 7.3% | 88.5 ± 7% | 79.6 ± 6.9% | 62.1 ± 5.7% | 49.5 ± 3.6% | 23.9 ± 2.4% | 10.4 ± 1.1% | 32.7 ± 2.93 µM | 104 ± 8.4% | 97.9 ± 7.7% | 90.8 ± 7% | 80 ± 6.9% | 61.3 ± 4.7% | 29.6 ± 2.6% | 11.1 ± 1.4% | 5.92 ± 0.5% | 18.5 ± 0.96 µM | –
O=C1Nc2ccccc2/C1=C1/Nc2ccccc2C1=O [Ind, Indirubin, reference compound] | – | – | – | – | – | – | – | – | 6.92 ± 0.65 µM | – | – | – | – | – | – | – | – | 6.12 ± 0.35 µM | IC50 (VEGFR-2): 126 ± 20 nM; IC50 (EGFR): 175 ± 18.3 nM; IC50 (CDK-2): 45.6 ± 2.24 nM; IC50 (CDK-4): 23.6 ± 2.15 nM
Cc1cc(C)c(/C=C2\C(=O)Nc3ccccc32)[nH]1 [Semaxanib] | – | – | – | – | – | – | – | – | – | – | – | – | – | – | – | – | – | – | fold more cytotoxic activity than sunitinib (HepG2 cells): 3 fold
